Measured values as given in patent publication US20150105252A1, “SUBSTITUTED PYRAZOLES AS HERBICIDES” (E I DU PONT DE NEMOURS AND COMPANY, priority 2013, published 2015).

Assays:
windgrass [1] = test: Test C postemergence; assay type: in vivo, Apera spica-venti; details: 62 g ai/ha, scale 0 to 100
windgrass [2] = test: Test C postemergence; assay type: in vivo, Apera spica-venti; details: 125 g ai/ha, scale 0 to 100, 0 no effect, 100 complete control
deadnettle = test: Test C postemergence; assay type: in vivo, Lamium amplexicaule; details: for Deadnettle plant response rating: scale 0 to 100
Excerpt: (§1) Seeds of plant species selected from blackgrass (Alopecurus myosuroides), ryegrass, Italian (Italian ryegrass, Lolium multiflorum), wheat (winter wheat, Triticum aestivum), galium (catchweed bedstraw, Galium aparine), corn (Zea mays), crabgrass, large (large crabgrass, Digitaria sanguinalis), foxtail, giant (giant foxtail, Setaria faberii), johnsongrass (Sorghum halepense), lambsquarters (Chenopodium album), morningglory (Ipomoea coccinea), nutsedge, yellow (yellow nutsedge, Cyperus esculentus), pigweed (redroot pigweed, Amaranthus retroflexus), ragweed (common ragweed, Ambrosia elation), soybean (Glycine max), barnyardgrass (Echinochloa crus-galli), oilseed rape (Brassica napus), waterhemp (common waterhemp, Amaranthus rudis), oat, wild (wild oat, Avena fatua), kochia (Kochia scoparia), Surinam grass (Brachiaria decumbens), foxtail, green (green foxtail, Setaria viridis), goosegrass (Eleusine indica), bromegrass, downy (downy bromegrass, Bromus tectorum), nightshade (eastern black nightshade, Solanum ptycanthum), cocklebur (common cocklebur, Xanthium strumarium), cupgrass, woolly (woolly cupgrass, Eriochloa villosa), bermudagrass (Cynodon dactylon), sunflower, (common oilseed sunflower, Helianthus annuus), Russian thistle (Salsola kali), and velvetleaf (Abutilon theophrasti) were planted into a blend of loam soil and sand and treated preemergence with test chemicals formulated in a non-phytotoxic solvent mixture which included a surfactant.
(§2) At the same time, plants selected from these crop and weed species and also chickweed (common chickweed, Stellaria media), canarygrass (littleseed canarygrass, Phalaris minor), and deadnettle (henbit deadnettle, Lamium amplexicaule), were planted in pots containing Redi-Earth® planting medium (Scotts Company, 14111 Scottslawn Road, Marysville, Ohio 43041) comprising spaghnum peat moss, vermiculite, wetting agent and starter nutrients and treated with postemergence applications of test chemicals formulated in the same manner. Plants ranged in height from 2 to 18 cm (1- to 4-leaf stage) for postemergence treatments. Treated plants and controls were maintained in a greenhouse for 13 to 15 days, after which time all species were compared to controls and visually evaluated. Plant response ratings, summarized in Table C, are based on a scale of 0 to 100 where 0 is no effect and 100 is complete control. A dash (-) response means no test result.

foxtail, green = test: Test C postemergence; assay type: in vivo, Setaria viridis; details: for Foxtail, Green plant response rating: scale 0 to 100
Excerpt: as §1, §2

barley = test: Test C postemergence; assay type: in vivo, Hordeum vulgare; details: scale 0 to 100, 0 no effect, 100 complete control
bromegrass, downy = test: Test C postemergence; assay type: in vivo, Bromus tectorum; details: for Bromegrass, Downy plant response rating: scale 0 to 100
Excerpt: as §1, §2

green foxtail = test: Test F preemergence; assay type: in vivo, Setaria viridis; details: Preemergence, scale 0 to 100
In short: (§3)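 Visual injury was scored from 0 (none) to 100 (complete control) relative to untreated controls after 14–21 days in a greenhouse. Before that, formulated compound (solvent plus surfactant) was sprayed either on silt-loam soil right after sowing or on emerged plants at the 1–4-leaf stage, 2–18 cm tall.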

nightshade = test: Test F preemergence; assay type: in vivo, Solanum ptycanthum; details: Preemergence, scale 0 to 100
Excerpt: (§4) Seeds of plant species selected from corn (Zea mays), soybean (Glycine max), velvetleaf (Abutilon theophrasti), lambsquarters (Chenopodium album), wild poinsettia (Euphorbia heterophylla), pigweed, palmer (palmer pigweed, Amaranthus palmeri), common waterhemp (Amaranthus rudis), surinam grass (Brachiaria decumbens), large crabgrass (Digitaria sanguinalis), crabgrass, Brazil (Brazilian crabgrass, Digitaria horizontalis), fall panicum (Panicum dichotomiflorum), giant foxtail (Setaria faberii), green foxtail (Setaria viridis), goosegrass (Eleusine indica), johnsongrass (Sorghum halepense), common ragweed (Ambrosia elation), barnyardgrass (Echinochloa crus-galli), southern sandbur (Cenchrus echinatus), arrowleaf sida (Sida rhombifolia), Italian ryegrass (Lolium multiflorum), dayflower, VA (Virginia (VA) dayflower, Commelina virginica), field bindweed (Convolvulus arvensis), cocklebur (common cocklebur, Xanthium strumarium), morningglory (Ipomoea coccinea), nightshade (eastern black nightshade, Solanum ptycanthum), kochia (Kochia scoparia), yellow nutsedge (Cyperus esculentus), and hairy beggarticks (Bidens pilosa), were planted into a silt loam soil and treated preemergence with test chemicals formulated in a non-phytotoxic solvent mixture which included a surfactant.
(§5) At the same time, plants from these crop and weed species and also horseweed (Canada horseweed, Conyza canadensis), smartweed (ladysthumb smartweed, Polygonum persicaria), waterhemp_RES1, (ALS & Triazine resistant common waterhemp, Amaranthus rudis), and waterhemp_RES2, (ALS & HPPD resistant common waterhemp, Amaranthus rudis) were treated with postemergence applications of test chemicals formulated in the same manner. Plants ranged in height from 2 to 18 cm for postemergence treatments (1- to 4-leaf stage). Treated plants and controls were maintained in a greenhouse for 14 to 21 days, after which time all species were compared to controls and visually evaluated. Plant response ratings, summarized in Table F, are based on a scale of 0 to 100 where 0 is no effect and 100 is complete control. A dash (-) response means no test result.

goosegrass = test: Test F preemergence; assay type: in vivo, Eleusine indica; details: Preemergence, scale 0 to 100
Excerpt: as §4, §5

common ragweed = test: Test F preemergence; assay type: in vivo, Ambrosia elation; details: Preemergence, scale 0 to 100
Excerpt: as §4, §5

barnyardgrass = test: Test F preemergence; assay type: in vivo, Echinochloa crus-galli; details: Preemergence, scale 0 to 100
Excerpt: as §4, §5

hairy beggarticks = test: Test F preemergence; assay type: in vivo, Bidens pilosa; details: Preemergence, scale 0 to 100
In short: as §3

[3] = postemergence, 250 g ai/ha, scale 0 to 100 (0 no effect, 100 complete control)
[4] = postemergence, 125 g ai/ha, scale 0 to 100, 0 no effect, 100 complete control
[5] = postemergence, 62 g ai/ha, scale 0 to 100, 0 no effect, 100 complete control

| SMILES | Windgrass plant response rating (windgrass [1]) | Plant response rating, Windgrass (windgrass [2]) | Deadnettle plant response rating (deadnettle; Postemergence, 31 g ai/ha) | Deadnettle plant response rating (deadnettle; postemergence, 62 g ai/ha) | Plant response rating, Deadnettle (deadnettle; [3]) | Plant response rating, Deadnettle (deadnettle; [4]) | Foxtail, Green plant response rating (foxtail, green; Postemergence, 31 g ai/ha) | Foxtail, Green plant response rating (foxtail, green; postemergence, 62 g ai/ha) | Plant response rating, Foxtail, Green (foxtail, green; [3]) | Plant response rating, Foxtail, Green (foxtail, green; [4]) | Plant response rating, Barley (barley; 125 g ai/ha) | Bromegrass, Downy plant response rating (bromegrass, downy; Postemergence, 31 g ai/ha) | Bromegrass, Downy plant response rating (bromegrass, downy; postemergence, 62 g ai/ha) | Plant response rating, Bromegrass, Downy (bromegrass, downy; [3]) | Plant response rating, Bromegrass, Downy (bromegrass, downy; [4]) | Plant response rating, Foxtail, Green (foxtail, green; [5]) | Plant response rating, Barley (barley; 62 g ai/ha) | Plant response rating, Bromegrass, Downy (bromegrass, downy; [5]) | also measured |
| --- | --- | --- | --- | --- | --- | --- | --- | --- | --- | --- | --- | --- | --- | --- | --- | --- | --- | --- | --- |
| CCONC(=O)c1cc(CC)n(Cc2cccc(OC(F)(F)F)c2)n1 [Compound 72] | 20 | 25 | 40 | 40 | 70 | 40 | 20 | 40 | 40 | 40 | 5 | 5 | 5 | 15 | 15 | – | – | – | – |
| Cc1cc(C(=O)NCC(F)(F)F)nn1Cc1ccnc(C(F)(F)F)c1 [Compound 74] | 0 | 0 | 10 | 60 | 80 | 70 | 0 | 0 | 5 | 0 | 0 | 0 | 0 | 0 | 0 | – | – | – | – |
| CCCNC(=O)c1cc(CC)n(Cc2cccc(OC(F)(F)F)c2)n1 [Compound 27] | 20 | 40 | – | – | – | – | 25 | – | 50 | 30 | – | 0 | – | 10 | 5 | 30 | 20 | 5 | – |
| CCc1cc(C(=O)NCC(F)(F)F)nn1Cc1cccc(OC(F)(F)F)c1 [Compound 20] | 10 | 40 | – | – | – | – | 20 | – | 60 | 55 | – | 0 | – | 10 | 5 | 30 | 20 | 0 | – |
| CCc1cc(C(=O)NCC(F)(F)F)nn1Cc1ccnc(Br)c1 [Compound 224] | – | – | – | – | – | – | – | – | – | – | – | – | – | – | – | – | – | – | Plant response rating, Green Foxtail (green foxtail; 62 g ai/ha): 35; Plant response rating, Green Foxtail (green foxtail; 125 g ai/ha): 70; Plant response rating, Green Foxtail (green foxtail; 250 g ai/ha): 95; Plant response rating, Nightshade (nightshade; 125 g ai/ha): 0; Plant response rating, Nightshade (nightshade; 250 g ai/ha): 95; Plant response rating, Goosegrass (goosegrass; 62 g ai/ha): 35; Plant response rating, Goosegrass (goosegrass; 125 g ai/ha): 60; Plant response rating, Goosegrass (goosegrass; 250 g ai/ha): 95; Plant response rating, Common Ragweed (common ragweed; 62 g ai/ha): 0; Plant response rating, Common Ragweed (common ragweed; 125 g ai/ha): 0; Plant response rating, Common Ragweed (common ragweed; 250 g ai/ha): 60; Plant response rating, Barnyardgrass (barnyardgrass; 62 g ai/ha): 0; Plant response rating, Barnyardgrass (barnyardgrass; 125 g ai/ha): 40; Plant response rating, Barnyardgrass (barnyardgrass; 250 g ai/ha): 70; Plant response rating, Hairy Beggarticks (hairy beggarticks; 62 g ai/ha): 0; Plant response rating, Hairy Beggarticks (hairy beggarticks; 125 g ai/ha): 0; Plant response rating, Hairy Beggarticks (hairy beggarticks; 250 g ai/ha): 10 |
| CCc1cc(C(=O)NOC(C)C)nn1Cc1cccc(OC(F)(F)F)c1 [Compound 70] | 25 | 50 | 25 | – | 90 | 70 | – | – | 80 | 80 | 10 | 0 | – | 5 | 5 | 5 | 5 | 0 | Plant response rating, Deadnettle (deadnettle; [5]): 70 |
